Results reported in US20210346359A1, “Use of CFTR Modulators For Treating Cerebrovascular Conditions” (Qanatpharma AG, priority 2018, published 2021).
Entries after “also recorded” stand apart in the source; their conditions may differ.

What was measured:
CFTR = CFTR (Mus musculus, UniProt P26361); assay: Western blot of CFTR protein in cerebral arteries of naïve mice treated in vivo; parameters: Cerebral artery lysates were prepared by grinding artery samples in lysis buffer; from tissue; host or cells: cerebral arteries of male wild-type C57BL/6N mice (naïve, heart failure or subarachnoid hemorrhage models); conditions: 3 mg/kg daily for 2 days, vs vehicle controls
Method: Western blots for CFTR were completed as previously described (12, 18). Cerebral artery lysates were prepared by grinding artery samples in lysis buffer containing 50 mM Tris (pH 7.3), 150 mM NaCl, 2 mM […], 0.1% Triton-X-100, 0.1% […] and protease inhibitors; the same lysis buffer was used to prepare cell culture lysates. Following lysis, the samples were centrifuged (10 minutes at 13,500 g; at 4° C.) to remove insoluble material. Immediately prior to polyacrylamide electrophoresis, additional SDS (to 2% final concentration), glycerol (to 2% final concentration), β-mercaptoethanol (to 2% final concentration) and dithiothreitol (2 mM final concentration) were added. Proteins were separated electrophoretically on 7% acrylamide gels and transferred onto polyvinylidene difluoride (PVDF) membranes. […]
The primary antibodies were conjugated with either peroxidase-labeled donkey anti-rabbit IgG (GE Healthcare Amersham (Piscataway, USA) cat# NA934) or peroxidase-labeled goat anti-mouse IgG (GE Healthcare Amersham cat# NA931) secondary antibodies. […] Developed films were evaluated densitometrically using “Image J” software (freely available from the NIH); digital images were evaluated with Image Lab software (Bio-Rad). […]

[1] = tested on: mice with subarachnoid hemorrhage; assay: Cleaved caspase-3 and Fluoro-Jade staining of cortical cells in subarachnoid hemorrhage mice; assay type: in vivo, mouse; conditions: 2 days post-SAH, 3 mg/kg daily for 2 days
Text: The development of delayed vasoconstriction and brain injury is more rapid in the experimental mouse SAH model (2-5 days post-SAH) (12,19-21), compared to what is observed clinically (4-12 days post-SAH) (22,23). […] At 2 days post-SAH induction, animals were anesthetized with isoflurane; their brains were perfused with phosphate buffered saline (PBS) and then perfusion fixed with phosphate-buffered paraformaldehyde (4%; pH 7.4), both via the ascending aorta. Brains were immediately dissected and cut into coronal sections 1 mm posterior to the bregma. These brain sections were post-fixed in 4% paraformaldehyde (pH 7.4) for 48 hours at 4° C. and then incubated in 10% sucrose (3 hours), followed by 30% sucrose overnight (at 4° C.) for cyroprotection. The brain sections were then embedded in OCT (Sakura Finetek USA; Torrance, USA) on isopentane and dry ice. Cryostat sections (5 μm thick coronal slices) were collected on “Tissue Path Superfrost Plus Gold” slides (Fisher Scientific; Whitby, Canada) and stored at −80° C. until used.
All samples were pre-treated with 10-minute proteinase (20 μg/ml; Promega; Madison, USA), followed by a standard 60-minute blocking procedure with either 10% normal donkey serum (Jackson immunoResearch Laboratories; West Grove, USA) in PBS or 10% goat serum (Invitrogen Life Technologies; Burlington, Canada) in PBS containing 1% bovine serum albumin. Brain slices were incubated with monoclonal rabbit anti-human active cleaved caspase-3 ([…] C92-605; 1:1000 dilution; BD Biosciences Canada; Mississauga Canada) and conjugated with Alexa Fluor 488 goat anti-rabbit IgG (Invitrogen). Both antibodies were diluted in Can Get Signal® immunoreaction enhancer solution and used an incubation time of 1 hour at room temperature. Specimens were washed and mounted with CC MountÔ.
Brain slices were serially incubated with 1% NaOH/80% ethanol (5 minutes), 70% ethanol (2 minutes), distilled water (2 minutes) and 0.06% potassium permanganate (10 minutes). After washing with deionized water, brain slices were stained with 0.0004% Fluoro-jade B (Histo-Chem Inc, Jefferson, USA) in 0.1% acetic acid (15 minutes). […]
Digital immunofluorescence images were acquired using a Zeiss LSM 710 confocal laser-scanning microscope in conjunction with Zeiss ZEN 2010 software (vessel images). […] Two independent assessors counted caspase-3 and Fluoro-Jade positive cells under blinded conditions, as previously described (12). For each animal, counts were obtained from the cortical region of a single coronal brain slice 1 mm posterior to the bregma (200× magnification), which includes the left and right temporal and parietal lobes The number of positive cells counted by each assessor was averaged, yielding a mean positive cell count/animal that was then used for statistical analyses.

Chain of CFTR (P26361 whole entry): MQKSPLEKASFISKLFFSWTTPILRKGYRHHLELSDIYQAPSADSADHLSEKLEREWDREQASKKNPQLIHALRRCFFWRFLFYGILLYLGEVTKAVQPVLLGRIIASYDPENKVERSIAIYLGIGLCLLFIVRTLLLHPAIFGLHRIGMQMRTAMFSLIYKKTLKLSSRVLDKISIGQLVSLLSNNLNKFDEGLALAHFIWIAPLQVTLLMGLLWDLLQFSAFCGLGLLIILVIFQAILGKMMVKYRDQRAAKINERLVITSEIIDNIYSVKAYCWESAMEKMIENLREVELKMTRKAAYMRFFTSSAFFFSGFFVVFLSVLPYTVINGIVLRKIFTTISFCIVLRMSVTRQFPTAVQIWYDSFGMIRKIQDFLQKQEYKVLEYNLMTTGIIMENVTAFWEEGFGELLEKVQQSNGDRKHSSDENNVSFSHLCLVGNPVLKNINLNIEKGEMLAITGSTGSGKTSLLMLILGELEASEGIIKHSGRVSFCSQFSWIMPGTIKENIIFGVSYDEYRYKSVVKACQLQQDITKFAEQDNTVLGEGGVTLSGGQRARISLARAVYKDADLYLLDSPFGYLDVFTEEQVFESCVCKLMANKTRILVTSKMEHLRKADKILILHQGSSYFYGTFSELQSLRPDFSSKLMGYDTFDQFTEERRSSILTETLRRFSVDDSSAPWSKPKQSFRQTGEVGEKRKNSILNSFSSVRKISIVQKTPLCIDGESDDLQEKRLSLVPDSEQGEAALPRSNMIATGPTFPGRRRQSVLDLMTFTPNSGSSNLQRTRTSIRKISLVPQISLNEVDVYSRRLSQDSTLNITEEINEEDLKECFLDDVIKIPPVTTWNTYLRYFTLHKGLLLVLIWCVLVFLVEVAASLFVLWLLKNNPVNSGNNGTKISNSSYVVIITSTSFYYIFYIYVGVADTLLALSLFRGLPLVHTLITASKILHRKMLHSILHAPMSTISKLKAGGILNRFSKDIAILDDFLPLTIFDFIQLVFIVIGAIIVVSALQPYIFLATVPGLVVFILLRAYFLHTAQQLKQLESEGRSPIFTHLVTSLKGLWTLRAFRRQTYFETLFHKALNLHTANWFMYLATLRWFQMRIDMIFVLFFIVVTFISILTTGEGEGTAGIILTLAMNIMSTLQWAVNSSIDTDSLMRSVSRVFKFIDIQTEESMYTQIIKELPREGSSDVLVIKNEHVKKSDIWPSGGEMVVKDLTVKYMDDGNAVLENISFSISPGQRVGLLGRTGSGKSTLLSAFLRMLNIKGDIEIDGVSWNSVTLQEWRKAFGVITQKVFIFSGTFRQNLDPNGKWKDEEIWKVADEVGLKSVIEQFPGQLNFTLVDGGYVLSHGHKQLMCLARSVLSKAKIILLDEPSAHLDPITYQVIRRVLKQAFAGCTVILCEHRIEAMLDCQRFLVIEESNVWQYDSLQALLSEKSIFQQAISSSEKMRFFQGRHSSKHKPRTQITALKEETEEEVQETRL

Structure (SMILES)	CFTR protein expression in cerebral arteries (CFTR)	SAH-induced increase in Fluoro-Jade positive cortical cells [1]	SAH-induced increase in cleaved caspase-3 positive cortical cells [1]	CFTR protein expression in cerebral arteries (CFTR; 3 mg/kg)
O=C(Nc1ncc(C(c2ccccc2Cl)N2CCC(O)C2)s1)C1(c2ccc3c(c2)OCO3)CC1 (stereo not drawn) [C18, 1-(benzo[d][1,3]dioxol-5-yl)-N-(5-((2-chlorophenyl)(3-hydroxypyrrolidin-1-yl)methyl)thiazol-2-yl)cyclopropanecarboxamide]	higher	dramatically attenuate; also recorded: abolish	dramatically attenuate; also recorded: abolish	
Cc1ccc(NC(=O)C2(c3ccc4c(c3)OC(F)(F)O4)CC2)nc1-c1cccc(C(=O)O)c1 [lumacaftor]		dramatically attenuate; also recorded: abolish	dramatically attenuate; also recorded: abolish	increases CFTR protein expression; also recorded: higher
